Source: patent US20120122728A1, “Method Of Screening Drugs For Reversal Of Amyloid Beta Neurotoxicity” (UNIVERSITY OF CENTRAL FLORIDA RESEARCH FOUNDATION, INC., priority 2009, published 2012)

Key:
[1] = system: cultured embryonic rat hippocampal neurons; test: MEA extracellular recording of spontaneous firing of cultured hippocampal neurons exposed to Aβ; type: cell-based; design: time until spiking activity of the cells stopped: dose or concentration left out as unconfirmed
Method: The MEAs and accompanying accessories, including the temperature controller, stimulator, amplifier and MC_Rack V 3.5.8 data acquisition software were obtained from ALA Scientific (Westbury, N.Y.) and Multichannel Systems (Reutlingen, Germany). The MEAs comprised of a glass base that acted as a substrate, gold connector contacts and electrodes composed of titanium nitride. Rings were made of Sylgard184 (Dow Corning) (1 part curing base and 10 parts elastomer base, cured at 60 uC for 45 minutes) using glass molds and were attached onto the MEAs after surface modification. Recordings were obtained from 12-16 D. old cultures. Cultures were kept in the incubator between recording sessions.
N-1(3-[trimethoxysilyl]propyl)-diethylenetriamine (DETA) was used to modify the MEAs to enhance cell attachment since the use of synthetic substrates such as DETA, allows for reproducible and precise quantification of the culture substrate properties. Glass coverslips (18 mm diameter, Number 1; VWR) were cleaned in two steps. First, they were soaked in 50/50% HCl (37%) (VWR)/methanol (Sigma), followed by H2SO4 (98%) (VWR) treatment. Next, they were rinsed in double distilled water. The coverslips were then boiled in deionized water, rinsed with acetone, and oven dried. The MEAs were initially cleaned overnight in 2% Tergazyme (Sigma) detergent solution. They were then rinsed in distilled water and plasma cleaned in a plasma cleaner (Harrick Plasma) for 30 mins. The N-1(3-[trimethoxysilyl]propyl)-diethylenetriamine (DETA) (United Chemical Technologies) surface assembled monolayer (SAM) film was formed by the reaction of the cleaned surfaces with a 0.1% (v/v) mixture of the organosilane in toluene. The DETA/toluene solution containing the MEAs was heated to 70 uC, rinsed with toluene, reheated to 70 uC, and then oven dried. Surfaces were characterized using contact angle measurement and X-ray photoelectron spectroscopy (XPS) as described previously.
(§1) All applied procedures were approved by the Institutional Animal Care and Use Committee of UCF. The protocol was modified from previously published work concerning embryonic rat hippocampal cultures. Pregnant rats, 18 days in gestation, obtained from Charles River were euthanized with carbon dioxide and the fetuses were collected in ice cold Hibernate E (BrainBits)/B27/Glutamax™/Antibiotic-Antimycotic (Invitrogen) (dissecting medium). Each fetus was decapitated and the whole brain was transferred to fresh ice cold dissecting medium. After isolation, the hippocampi were collected in a fresh tube of dissecting medium. Hippocampal neurons were obtained by triturating the tissue using a Pasteur pipette. In order to remove any debris from damaged cells the 1 ml cell suspension was layered over a 4 ml step gradient (Optipep diluted 0.505:0.495 (v/v) with the dissecting medium and then made to 15%, 20%, 25% and 35% (v/v) in the dissecting medium) followed by centrifugation for 15 min at 800 g and 4 uC. After centrifugation, one strong band of cells was obtained. This band of cells was resuspended in culture medium (Neurobasal/B27/Glutamax™/Antibiotic-Antimycotic) and plated at a density of 100 cells/mm2 on DETA coated coverslips for patch clamp electrophysiology and at 200 cells/mm2 on the MEAs.
(§2) Different concentrations of Aβ (1-42) (Bachem) aggregates were prepared according to the protocol by Klein [1] in Neurobasal medium without phenol red, and quantified using Immunoblots. Curcumin (Cayman Chemicals) was prepared and the concentration chosen according to previously published protocols.
In all experiments with MEAs Aβ was administered to the cells on day 16 in vitro. We chose experimental paradigms similar to those used for patch clamp electrophysiology, to study the potential therapeutic effects of curcumin. In coadministration experiments, cells were exposed to a mixture of 100 nM Aβ and 1 mM Curcumin for 24 hrs, and recordings were performed. […]

[2] = system: cultured embryonic rat hippocampal neurons; test: Whole cell patch clamp electrophysiology of hippocampal neurons exposed to Aβ; type: cell-based
From the text: as §1, §2
For patch clamp electrophysiology experiments, Aβ was administered to the cells on day 10 in vitro and recordings were performed after 24 hrs to obtain baseline values for control cells and Aβ treated cells. In coadministration experiments, a mixture of 100 nM Aβ and 1 mM curcumin was administered for 24 hrs after which patch clamp electrophysiology recordings were performed. In sequential administration, cells were initially exposed to freshly aggregated Aβ alone, followed by replacement of the Aβ solution with curcumin for 24 hrs patch clamp recordings were performed 24 hrs after curcumin treatment. Whole-cell patch clamp recordings were performed at room temperature in a recording chamber on the stage of a Zeiss Axioscope 2 FS Plus upright microscope as described in [44].

Aβ oligomerization [3] = target: T1, Aβ oligomerization (Homo sapiens, UniProt P05067); test: Immunoblot of Aβ oligomers; type: biochemical; conditions: immunoblot lane 2
Method: Different concentrations of Aβ (1-42) (Bachem) aggregates were prepared according to the protocol by Klein [1] in Neurobasal medium without phenol red, and quantified using Immunoblots. Curcumin (Cayman Chemicals) was prepared and the concentration chosen according to previously published protocols [20].

Aβ oligomerization [4] = target: T1, Aβ oligomerization; conditions: literature [20], compared with Ibuprofen; cited from earlier work
amyloid plaque burden = conditions: transgenic APPsw mice; cited from earlier work
hippocampal cells = test: Cell survival (live dead assay, MTT assay) after Aβ treatment; type: cell-based, rat
Method: To confirm this finding a MTT assay (3-[4,5-dimethylthiazol-2-yl]-2,5-diphenyl tetrazolium bromide) was performed on the amyloid treated cells and this supported the results obtained with the live dead assay.

[5] = all measured concentrations of Aβ

T1 sequence (P05067 672-713 limits assumed): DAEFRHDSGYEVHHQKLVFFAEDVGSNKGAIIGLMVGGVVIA

| Compound | time at which drop in firing frequency reached a plateau ([1]; after curcumin and Aβ were coadministered) | time at which recovery of spontaneous firing was observed ([1]; after curcumin was applied post Aβ exposure) | ameliorating Aβ toxicity, coadministration versus administration after 24 h Aβ ([2]; low doses of curcumin) | Aβ oligomerization in the presence of Curcumin (Aβ oligomerization [3]) | Aβ oligomer formation and Aβ toxicity (Aβ oligomerization [4]) | amyloid plaque burden (amyloid plaque burden) | time until the cells stopped firing ([1]; 50 nM Aβ, lowest concentration) | time until spiking activity of the cells stopped ([1]; Aβ, highest concentration tested) | effect on spontaneous spiking activity [1, 5] | firing frequency preceding blockade of spontaneous activity [1, 5] | outward (K+) currents ([2]; 100 nM Aβ, 24 h) | resting membrane potential ([2]; 100 nM Aβ, 24 h) | spontaneous firing ([2]; 100 nM Aβ, 24 h, 30 exposed cells) | cell survival compared to the control (hippocampal cells; 100 nM Aβ, 24 hours and 7 days) | cell death (hippocampal cells; high concentrations of Aβ, cells on MEAs) |
| --- | --- | --- | --- | --- | --- | --- | --- | --- | --- | --- | --- | --- | --- | --- | --- |
| COc1cc(/C=C/C(=O)CC(=O)/C=C/c2ccc(O)c(OC)c2)ccc1O [curcumin] | about 18 hrs | around 10 hrs | more successful in ameliorating Aβ toxicity when coadministered with Aβ | apparent inhibition of Aβ oligomerization | inhibiting Aβ oligomer formation and Aβ toxicity at significantly lower concentrations than Ibuprofen | reduce amyloid plaque burden |  |  |  |  |  |  |  |  |  |
| Aβ: Amyloid beta (1-42) peptide (Bachem), soluble oligomer aggregates used as neurotoxicant [Aβ (1-42)] |  |  |  |  |  |  | about 11 h | about 150 min | completely abolishes spontaneous spiking activity | significant increase in firing frequency | increase in the amplitude of the outward (K^+) currents | depolarization in the resting membrane potential | no spontaneous action potentials were recorded | small differences in cell survival compared to the control | high cell death |
